Data reported in article PMC7589200, “Identification of Putative Non-Substrate-Based XT-I Inhibitors by Natural Product Library Screening” (Biomolecules, 2020).
Like-named read-outs stand apart in the source and are kept apart here.

Experiments:
[1] = target: T1, XT-I (Homo sapiens, UniProt Q86Y38); assay: IC50 determination, UPLC/ESI-MS/MS XT-I assay; format: biochemical
T1 sequence (Q86Y38 260-959 limits assumed): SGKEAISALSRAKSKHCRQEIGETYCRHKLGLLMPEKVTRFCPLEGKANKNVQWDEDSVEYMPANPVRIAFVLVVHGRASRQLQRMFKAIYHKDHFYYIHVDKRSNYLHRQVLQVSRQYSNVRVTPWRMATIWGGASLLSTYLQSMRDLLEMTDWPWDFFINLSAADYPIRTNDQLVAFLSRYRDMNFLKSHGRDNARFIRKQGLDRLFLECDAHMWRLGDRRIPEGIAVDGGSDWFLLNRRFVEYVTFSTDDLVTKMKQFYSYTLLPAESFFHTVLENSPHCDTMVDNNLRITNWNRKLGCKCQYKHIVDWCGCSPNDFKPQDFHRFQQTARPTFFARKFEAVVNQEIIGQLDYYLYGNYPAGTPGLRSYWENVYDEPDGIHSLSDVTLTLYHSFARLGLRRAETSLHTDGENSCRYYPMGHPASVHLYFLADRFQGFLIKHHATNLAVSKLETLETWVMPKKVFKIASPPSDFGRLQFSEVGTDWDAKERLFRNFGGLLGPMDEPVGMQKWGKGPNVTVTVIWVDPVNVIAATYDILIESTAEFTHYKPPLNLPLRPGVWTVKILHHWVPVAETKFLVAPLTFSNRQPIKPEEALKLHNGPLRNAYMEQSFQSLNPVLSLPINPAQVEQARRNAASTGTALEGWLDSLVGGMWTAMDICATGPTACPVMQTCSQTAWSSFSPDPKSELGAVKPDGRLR
Text: The measurement of relative XT-I activity among different samples is based on the XT-catalyzed incorporation of xylose from UDP-D-xylose on a modified bikunin-derived peptide after a fixed reaction time. The assay was originally developed for the determination of XT activity in human- or cell-culture-derived samples [13] by ultra-performance liquid chromatography/electrospray ionization tandem mass spectrometry (UPLC/ESI-MS/MS). The UPLC/ESI-MS/MS XT assay was recently modified toward a XT-I selective activity determination in human serum and cell culture samples (unpublished data). The relative intensities of the xylosylated peptide species abundance obtained with the respective m/z ratio were directly proportional to the relative XT-I activity of the sample. The XT-I activity determined is expressed in arbitrary units and normalized to the total protein content per 1 mL sample volume in cell culture approaches. A calibrator probe with a fixed amount of recombinant XT-I enzyme was included in every UPLC-MS/MS XT-I assay for assay comparability across multiple runs. […]
Inhibitor candidates from the NP compound library were screened using the UPLC/ESI-MS/MS XT-I assay with recombinant XT-I protein solution from pgsA-6HisXT1-K4 cells. […] The XT-I activity of the protein-inhibitor mixtures were determined by UPLC/ESI-MS/MS as described above. […]

[2] = target: T1, XT-I; assay: Enzyme and inhibition kinetics (mode of inhibition), UPLC/ESI-MS/MS XT-I assay; format: biochemical; details: inhibitor at IC50 concentration; for Vmax: Figure 2, modified acceptor peptide varied, 15 μM UDP-D-xylose, Michaelis-Menten; for Vmax [AU]: Table S2, Michaelis-Menten plot, nonlinear regression
Text: The measurement of relative XT-I activity among different samples is based on the XT-catalyzed incorporation of xylose from UDP-D-xylose on a modified bikunin-derived peptide after a fixed reaction time. The assay was originally developed for the determination of XT activity in human- or cell-culture-derived samples [13] by ultra-performance liquid chromatography/electrospray ionization tandem mass spectrometry (UPLC/ESI-MS/MS). The UPLC/ESI-MS/MS XT assay was recently modified toward a XT-I selective activity determination in human serum and cell culture samples (unpublished data). The relative intensities of the xylosylated peptide species abundance obtained with the respective m/z ratio were directly proportional to the relative XT-I activity of the sample. The XT-I activity determined is expressed in arbitrary units and normalized to the total protein content per 1 mL sample volume in cell culture approaches. A calibrator probe with a fixed amount of recombinant XT-I enzyme was included in every UPLC-MS/MS XT-I assay for assay comparability across multiple runs. The assay reaction mixture (50 μL) contained 50% (v/v) of the respective XT-I enzyme solution and 50% (v/v) reaction buffer. The final XT-I assay contained 25 mM MES buffer (pH 6.5), 25 mM KF buffer, 5 mM MnCl2, 5 mM MgCl2, 7.0 μM modified acceptor peptide and 30 μM UDP-D-xylose. The sample preparation for UPLC/ESI-MS/MS was performed according to [13]. In brief, after sample incubation at 37 °C for 24 h, the reaction was stopped by heating at 99 °C for 10 min. After centrifugation (10,000× g, 10 min) the supernatant was diluted fivefold with UPLC water for analysis. All cell-based XT-I assays were carried out in three biological and three technical replicates per donor-derived primary cell culture, while the XT-I activity determination for screening or kinetic purposes was carried out at least in technical duplicates.
The mode of inhibition (MOI) study was performed by evaluating the inhibitors’ impact on the enzyme parameters’ Michaelis constant Km and the maximum activity Vmax. In order to determine the enzyme and inhibition kinetics, XT-I activity determination of the recombinant XT-I protein solution with and without inhibitor supplementation was carried out in the presence of different acceptor peptide concentrations ranging from 1 to 30 μM. […] The Km and Vmax were determined with the Michaelis–Menten equation and nonlinear regression analysis, while the slope and Y-intersection values were determined by a Lineweaver–Burk plot and simple linear regression using GraphPad Prism 8.0 (GraphPad Software, La Jolla, United States) software.

[3] = tested on: XYLT2 mRNA expression; assay: XYLT2 mRNA expression in NHDFs by qRT-PCR; format: cell-based, human; details: 48 h
Description: A former established cell culture model was utilized to investigate the effect of putative XT-I inhibitors on NHDFs. The inhibition studies were carried out with final inhibitor concentrations of 0.5, 1.0, 2.0 or 4.0 μM diluted in fully supplemented DMEM. In brief, unless otherwise stated, NHDFs were cultivated with a low density of 50 cells per mm^2 on a hard tissue culture substrate (100 × 20 mm dish) in fully supplemented DMEM with or without additional TGF-β1 (5 μg/L) for 24 h, promoting their transdifferentiation into proto-myofibroblasts. Thereafter, cells were treated with celastrol or amphotericin B in the presence or absence of TGF-β1 (5 μg/L) for an additional 48 h. Negative controls treated with solvent only were included for every sampling time. The final DMSO content of 0.04% (v/v) was kept constant in all inhibition experiments.
The RNA extraction from cell lysates and cDNA synthesis for mRNA and miRNA expression analysis were performed as described previously.
Quantitative real-time polymerase chain reaction (qRT-PCR) analysis using a LightCycler 480 Instrument II system (Roche, Basel, Swiss) was performed as previously described. The qRT-PCR experiments were conducted with three biological and three technical replicates per donor-derived primary cell culture, unless otherwise stated. The intron-spanning primer sequences used are listed in [7] and Table 1. The geometric mean of the expression levels of the housekeeping genes SDHA, RPL13A and B2M were calculated for expression normalization. The relative target gene mRNA expressions were determined by the ΔΔCT method considering the PCR efficiency. All normalized gene expression levels shown were referred to the respective target gene expression of one primary cell culture sample for the relative comparison of multiple biological samples per experiment and figures.

Compound | IC50 [1] [µM] | Vmax [2] | Vmax [AU] [2] [AU] | mode of inhibition (MOI) regarding the acceptor peptide [2] | XYLT2 mRNA expression level ([3]; 1.0 μM in the presence of TGF-β1 (5 μg/L)) | IC50 ([1]; 15 μM UDP-D-xylose, 10.5 μM acceptor peptide, 1 h preincubation at RT, read-out: IC50) [µM] | XYLT2 mRNA expression level ([3]; 2.0 μM with TGF-β1 (5 μg/L), versus TGF-β1 only)
CC1=C(O)C(=O)C=C2C1=CC=C1[C@@]2(C)CC[C@@]2(C)[C@@H]3C[C@](C)(C(=O)O)CC[C@]3(C)CC[C@]12C [Compound 68, Celastrol] | 11 ± 1 | 12 ± 0.6 ·10^3 AU | 11826 ± 551 | competitive | did not alter |  | 
C[C@@H]1[C@H](O)[C@@H](C)/C=C/C=C/C=C/C=C/C=C/C=C/C=C/[C@H](O[C@@H]2O[C@H](C)[C@@H](O)[C@H](N)[C@@H]2O)C[C@@H]2O[C@](O)(C[C@@H](O)C[C@@H](O)[C@H](O)CC[C@@H](O)C[C@@H](O)CC(=O)O[C@H]1C)C[C@H](O)[C@H]2C(=O)O [Compound 17, Amphotericin B] |  | 10 ± 0.4 ·10^3 AU | 10031 ± 388 | uncompetitive |  | 12.2 ± 1 | did not differ
